# Measured values from patent publication US7737112B2, “Composition for enzyme inhibition” (Onyx Therapeutics, Inc., priority 2004, dated 2010).
# What was measured:
# Format in all cases: physicochemical
# [1] = solubility of peptide epoxy ketones in cyclodextrin formulations
# Description: 100 μg/mL peptide (b) was formulated in an aqueous solution containing 130 mg/mL hydroxypropyl beta cyclodextrin (HPBCD) and ca. 0.9% (w/v) NaCl.
# 2 mg/mL peptide (a) was formulated in an aqueous solution containing 10% (w/v) SBECD and 10 mM citric acid adjusted to pH 3.5 with 0.1 M aqueous sodium hydroxide.
# (§1) Appropriate masses of SBECD and citric acid were added to a volume of WFI corresponding to approximately 75% that of the final formulation. This mixture was then stirred at room temperature until complete dissolution of the SBECD and citric acid was effected. An appropriate mass of peptide (a) was then added and the resulting mixture stirred at room temperature until the added peptide (a) was dissolved. A pH electrode was then immersed in the solution and, with rapid stirring, the pH was adjusted to 3.5 by slow addition of 0.1 M sodium hydroxide in WFI; slow addition of the sodium hydroxide solution with adequate stirring was necessary to prevent precipitation of peptide (a). With rapid stirring, the resulting solution was then diluted with WFI to a final peptide (a) concentration of 2.0 mg/mL. This solution was then sterile filtered to yield the final formulation.
# Several other final pH values were used for the peptide (a)/SBECD formulations.
# [2] = reconstitution of lyophilized (3x) peptide (a)/SBECD formulation
# Description: 6 mg/mL peptide (a) was formulated in an aqueous solution containing 30% (w/v) SBECD and 30 mM citric acid adjusted to pH 3.5 with 0.5 M aqueous sodium hydroxide.
# as §1, with “70%” for “approximately 75%”, “0.5” for “0.1”, “6.0” for “2.0”
# The vials containing product were loaded onto the shelves and the temperature set for 5° C. for 2 hrs. […]
# Reconstitution was effected by addition of 9.75 mL of WFI, USP to produce the desired fill volume within the vial of 10.5 mL. […] The pH measured was 3.5±0.1.
# [3] = room temperature stability of reconstituted peptide (b)/HPBCD drug product; details: 100 μg/mL peptide (b)/HPBCD solid reconstituted in aqueous 0.9% (w/v) NaCl, sterile filtered
# Description: The desired quantity of peptide (b) was weighed and dissolved in absolute ethanol at a concentration of 1 mg/mL. For each 1 mg of peptide (b) to be formulated, 1.3 g HPBCD was dissolved in absolute ethanol at a concentration of 10 mg/mL. This ethanol/HPBCD solution was then combined with the ethanol/peptide (b) solution, stirred 5 minutes at room temperature and then evaporated under reduced pressure (rotovapped) to yield a white solid. This solid was placed under high vacuum (ca. 1 mTorr) for 24 hrs, pulverized and then placed under high vacuum (ca. 1 mTorr) for another 4 hrs to yield dry solid. The final formulation was prepared by dissolving this solid drug product to a final concentration of 100 μg peptide (b)/mL solid drug product in ice cold USP grade aqueous 0.9% (w/v) NaCl followed by sterile filtration. Room temperature stability of the reconstituted drug product was ca. 12 hrs.
solubility when formulated with a cyclodextrin [1],"time for dissolution on reconstitution ([2]; lyophilized 6 mg/mL peptide (a), 30% (w/v) SBECD, 30 mM citric acid pH 3.5, 9.75 mL WFI added, fill volume 10.5 mL)",pH measured after reconstitution ([2]; lyophilized peptide (a)/SBECD/citrate formulation reconstituted with WFI),"state of the solution at room temperature ([1]; 100 μg/mL in aqueous 130 mg/mL HPBCD, ca. 0.9% (w/v) NaCl, could not be made by simply dissolving)",Room temperature stability of the reconstituted drug product [3],Compound
significantly enhanced,less than 2 minutes,3.5±0.1,,,CC(C)C[C@H](NC(=O)[C@H](CCc1ccccc1)NC(=O)CN1CCOCC1)C(=O)N[C@@H](Cc1ccccc1)C(=O)N[C@@H](CC(C)C)C(=O)[C@@]1(C)CO1 [peptide (a)]
significantly enhanced,,,supersaturated (metastable),ca. 12 hrs,CC(=O)N[C@@H](CCc1ccccc1)C(=O)N[C@@H](CC(C)C)C(=O)N[C@@H](Cc1ccccc1)C(=O)N[C@@H](CC(C)C)C(=O)[C@@]1(C)CO1 [peptide (b)]
